The text below walks through data of ChEMBL document CHEMBL4371089, “Novel, potent, selective, and brain penetrant phosphodiesterase 10A inhibitors” (Bioorg Med Chem Lett, 2019).

Structures are written as SMILES.

For series [1] the following is noted: rat, in vivo, ip, 2 mg/kg, 1 h.
The conditions of series [2]: rat, in vivo, ip, 2 mg/kg, 1 h. The source holds these as a separate data set.
Series [3] can be described thus: in vivo. Conditions: rat, iv, 2 mg/kg.
The nature of series [4]: in vivo. Conditions: rat, po, 2 mg/kg.
Series [5] is described as follows: in vivo. The conditions noted are these: rat, plasma, ip, 2 mg/kg.
A short description of series [6]: in vivo. Conditions: rat, brain, ip, 2 mg/kg.
Series [7] in a line: in vivo. Conditions: rat, brain/plasma, ip, 2 mg/kg.
A short description of series [8]: in vivo. The conditions noted are these: rat, brain/plasma, ip, 2 mg/kg. The source holds these as a separate data set.
In the next series the test system is P-gp. Put plainly: in vitro. Conditions: dog, MDCK-MDR1.

In general, Vd refers to the apparent volume that relates the amount in the body to the concentration in plasma or blood. Low values mean little distribution into tissue, high ones wide distribution into tissue. In general, bioavailability refers to the share of a dose that reaches the circulation, judged against a reference dose that is usually intravenous. Low values mean poor availability, high ones good availability. In general, Kp refers to tissue or fluid exposure divided by exposure in the circulation. As a reminder, the Papp is the rate of passage across a membrane or cell layer, normalised by area and donor concentration. Read a low Papp as slow passage. As to `CCCc1nc(C)c2c(C)nc3ccc(OC)nc3n12`, the “Cp(f)/dose” value in series [1] came out at 0.1 ng/mL. Besides, the “Druguptake(free)/dose” value in series [2] turned out to be 0.4 ng/mL. In the series “in vivo [3]”, this compound came in with a Vd of 2.4 L/kg. Also, in “in vivo [4]”, the bioavailability came out at 19%. Also, the concentration at 1 h in the series “in vivo [5]” came to 72 ng/mL; in the series “in vivo [6]”, 118 ng/mL. The Kp at 1 h in the series “in vivo [7]” was 1.67. Also, the Kp uu at 1 h in the series “in vivo [8]” was determined as 3.81. The Papp in the series on P-gp is 33 ×10⁻⁶ cm/s.

Consider `Cn1nc(-c2ccccc2Cl)c2c3cc(F)cc(F)c3nnc21`, for which the Papp with P-gp is 36 ×10⁻⁶ cm/s.

In the series with P-gp, `CCCc1nc(C)c2c(C)nc3scnc3n12` came in with a Papp of 68 ×10⁻⁶ cm/s. This Papp is about 1.9-fold higher than that of the compound before.

`COc1cc(OC)c2nnc3c(c(C4CC4)nn3C)c2c1`: the Papp in the series on P-gp was 62 ×10⁻⁶ cm/s.
